Values of other authors, collected in patent publication US8003635B2, “Superoxide dismutase mimics for the treatment of ocular disorders and diseases” (Novartis AG, priority 2001, dated 2011).

What was measured:
[1] = system: light-induced retinal damage; settings: albino rats
[2] = system: onset of diabetes; settings: diabetogenic T-cell clone
[3] = system: diabetic rats

In the case of CC1(C)CC(O)CC(C)(C)N1[O] [4-hydroxy-2,2,6,6-tetramethylpiperidine-1-oxyl], the light-induced retinal damage [1] is given as “inhibited light-induced retinal damage”.

For CCN1C=CC=C/C1=C1/C2=NC(=C(c3cccc[n+]3CC)C3=NC(=C(c4cccc[n+]4CC)c4ccc([n-]4)C(c4cccc[n+]4CC)=C4C=CC1=N4)C=C3)C=C2.[Cl-].[Cl-].[Cl-].[Cl-].[Cl-].[Mn+3] [AEOL10113], the onset of diabetes [2] is given as “delay the onset of diabetes”.

For [Cl-].[Cl-].[Mn+2].c1cc2nc(c1)CN[C@@H]1CCCC[C@H]1NCCN[C@@H]1CCCC[C@H]1NC2 [M40403], the “vascular and neural dysfunction” value [3] is listed as “prevented vascular and neural dysfunction”.
